From US8466162B2, “5-alkynyl-pyridines” (Boehringer Ingelheim International GmbH, priority 2011, dated 2013)

What was measured:
[1] = tested on: BT474 cells; assay: alamarBlue BT474 cell assay (antiproliferative/cytotoxicity); type: cell-based; details: BT-474 human breast cancer cell line, 5-6 days incubation
In short: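 EC50 values reflect antiproliferative or cytotoxic effect, taken from fluorometric alamarBlue signal (excitation 530-560 nm, emission 590 nm) corrected for a medium blank. Exposure lasted 5-6 days at concentrations up to 10 μM final.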

[2] = tested on: MCF7 cells; assay: alamarBlue MCF7 cell assay (antiproliferative/cytotoxicity); type: cell-based; details: MCF7 human breast cancer cell line
In short: (§1)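 Read-out: alamarBlue reduction by metabolically active cells, fluorescence ex 530-560 nm/em 590 nm, measured 8 h after dye addition at 37° C. Cells had been exposed to compound for 5-6 days over a 10-point 1:3 series starting at 10 μM final. EC50 derived after medium-blank subtraction.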

[3] = target: T1, PI3Kalpha (Homo sapiens, UniProt P42336); assay: Inhibition of PI3Kalpha-induced PIP-2 phosphorylation (filter-binding assay, 33P-ATP); type: biochemical; details: PI3 Kinase alpha (p85alpha/His-p110alpha), 1 μM ATP; read-out: IC50 PI3Kα
T1 construct: His (N); made in house; host or cells: SF9 insect cells (baculovirus co-infection)
T1 sequence (P27986 whole entry): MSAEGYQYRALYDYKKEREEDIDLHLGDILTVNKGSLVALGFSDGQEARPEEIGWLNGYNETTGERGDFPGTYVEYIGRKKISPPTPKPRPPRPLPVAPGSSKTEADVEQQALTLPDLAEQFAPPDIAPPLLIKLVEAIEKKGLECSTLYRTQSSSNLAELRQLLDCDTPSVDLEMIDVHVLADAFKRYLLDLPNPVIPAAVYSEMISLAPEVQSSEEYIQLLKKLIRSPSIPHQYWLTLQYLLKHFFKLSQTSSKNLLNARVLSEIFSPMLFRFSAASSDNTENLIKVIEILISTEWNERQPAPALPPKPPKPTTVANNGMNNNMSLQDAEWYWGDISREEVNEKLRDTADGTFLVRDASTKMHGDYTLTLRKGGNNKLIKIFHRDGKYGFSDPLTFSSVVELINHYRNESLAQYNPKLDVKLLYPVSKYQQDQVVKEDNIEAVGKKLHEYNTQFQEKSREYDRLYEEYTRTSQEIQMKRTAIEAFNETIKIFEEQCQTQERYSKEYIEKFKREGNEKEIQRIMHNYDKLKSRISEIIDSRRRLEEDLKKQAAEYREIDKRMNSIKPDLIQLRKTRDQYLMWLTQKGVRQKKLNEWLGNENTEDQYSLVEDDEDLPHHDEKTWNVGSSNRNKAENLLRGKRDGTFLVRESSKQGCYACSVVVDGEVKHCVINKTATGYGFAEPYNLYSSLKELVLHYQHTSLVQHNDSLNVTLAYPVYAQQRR
T1 sequence (P42336 whole entry): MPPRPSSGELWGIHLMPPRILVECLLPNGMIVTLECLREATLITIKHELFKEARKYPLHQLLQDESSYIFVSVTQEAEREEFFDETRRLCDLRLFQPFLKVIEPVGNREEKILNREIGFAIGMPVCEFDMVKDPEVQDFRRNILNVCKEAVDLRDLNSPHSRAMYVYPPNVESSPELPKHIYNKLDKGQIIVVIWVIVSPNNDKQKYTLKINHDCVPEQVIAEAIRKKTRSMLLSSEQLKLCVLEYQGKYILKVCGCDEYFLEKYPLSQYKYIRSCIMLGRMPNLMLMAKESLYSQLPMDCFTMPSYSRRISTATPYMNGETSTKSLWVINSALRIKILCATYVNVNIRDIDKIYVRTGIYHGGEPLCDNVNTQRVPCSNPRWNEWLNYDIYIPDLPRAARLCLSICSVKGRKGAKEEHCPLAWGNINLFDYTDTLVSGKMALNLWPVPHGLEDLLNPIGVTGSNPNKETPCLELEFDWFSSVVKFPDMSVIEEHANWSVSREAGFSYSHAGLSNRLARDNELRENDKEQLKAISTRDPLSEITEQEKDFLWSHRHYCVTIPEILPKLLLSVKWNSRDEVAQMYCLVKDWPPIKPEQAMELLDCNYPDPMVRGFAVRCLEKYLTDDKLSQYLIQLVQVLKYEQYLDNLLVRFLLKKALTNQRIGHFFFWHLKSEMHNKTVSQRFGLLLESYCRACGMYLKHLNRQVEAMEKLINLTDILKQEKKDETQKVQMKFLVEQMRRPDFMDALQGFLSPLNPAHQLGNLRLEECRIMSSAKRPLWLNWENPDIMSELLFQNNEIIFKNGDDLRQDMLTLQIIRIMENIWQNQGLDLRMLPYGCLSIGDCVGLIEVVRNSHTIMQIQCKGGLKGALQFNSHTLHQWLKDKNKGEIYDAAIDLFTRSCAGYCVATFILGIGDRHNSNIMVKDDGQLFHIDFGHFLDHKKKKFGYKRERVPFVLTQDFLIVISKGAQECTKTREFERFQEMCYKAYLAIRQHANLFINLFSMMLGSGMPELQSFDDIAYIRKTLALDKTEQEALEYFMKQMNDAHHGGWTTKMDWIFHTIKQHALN

[4] = tested on: MB453 cells; assay: alamarBlue MB453 cell assay (antiproliferative/cytotoxicity); type: cell-based; details: Homo sapiens; MDA MB 453 breast cancer cell line
Excerpt: (§2) The H460, MB453, U87, MCF7 and BT474 alamarBlue cell assays provide EC50 values indicative of the antiproliferative or cytotoxic effects of the compounds to respectively the H460 (human non small cell line cancer), MB-453 (breast cancer cell line), U87 (glioblastoma cell line), MCF7 (breast cancer cell line) and BT474 (breast cancer cell line). As known in the field, antiproliferative or cytotoxic effect against this cell lines would be expected to be indicative of activity in treating lung, breast and brain cancers. See R. Marone R et al. Biochim. Biophys. Acta. 2008 January; 1784(1):159-85. S. Yaguchi et al., J. Natl. Cancer Inst. 2006 Apr. 19; 98(8):545-56.
(§3) Method Type: Antiproliferative/Cytotoxicity
(§4) alamarBlue® is designed to provide a rapid and sensitive measure of cell proliferation and cytotoxicity in various human and animal cell lines. The assay is based on the reduction of alamarBlue in the reducing environment of living (metabolically active) cells. In the presence of added cytotoxic or antiproliferative compounds, the innate metabolic activity ceases.
(§5) AlamarBlue is soluble and stable in culture medium. Measurements are made fluorometrically by exciting at 530-560 nm and measuring emission at 590 nm. In reporting percent alamarBlue reduction by monitoring fluorescence, data are expressed as fluorescence emission intensity units as a function of time of incubation.
(§6) 3. Equipment • 96-well plates, flat bottom (Falcon, Cat. No.: 353072) • 96-well plates, U-shaped (Costar, Cat. No.: 3799) • CO2-Incubator • Microplate Reader, Spectramax Plus, Molecular Devices 4. Typical Procedure • Day 0: Seed 3000 BT-474 cells (IMDM/5% FCS, 1% NEAA, 1% Sodiumpyruvat) in 150 μl medium into a 96-well plate, flat bottom (include mediumblank). Incubate plates at 37° C. in a CO2 incubator overnight. • Day 1: Dilute compounds to a concentration 40 μM ->1:3 in medium, 10 dilution steps, in 96-well plates. • Add 50 μl per well of each dilution (total volume per well 200 μl; final conc. of cpds: 10 μM ->1:3). If required, test further dilutions. • All concentrations are tested in duplicates. • Controls: Cells w/o cpd. (+50 μl medium/DMSO). • Cells are incubated with compounds for 5-6 days. • Day 6 or 7: Add 25 μl of alamarBlue solution to each well and incubate for 8 hours at 37° C. Measure fluorescence by exciting at 530-560 nm and measuring emission at 590 nm 5. Evaluation • Subtract average value for medium blank from sample readings • Calculate EC50 using GraphPad Prism (Fifty)

[5] = tested on: U87 cells; assay: alamarBlue U87 cell assay (antiproliferative/cytotoxicity); type: cell-based; details: U-87MG human glioblastoma cells
Excerpt: as §2, §3, §4, §5, §6

[6] = tested on: H460 cells; assay: alamarBlue H460 cell assay (antiproliferative/cytotoxicity); type: cell-based; details: NCI-H460; H460 human lung carcinoma cells
In short: as §1

Row | SMILES | IC50 [3] [µM] | EC50 [1] [µM] | EC50 [2] [µM] | EC50 [4] [µM] | EC50 [5] [µM] | EC50 [6] [µM]
1 | CCOc1ccc(-c2ncnc(CC)c2C#Cc2cnc(C)c(NS(C)(=O)=O)c2)cc1OCC [Example 23, N-{5-[4-(3,4-Diethoxy-phenyl)-6-ethyl-pyrimidin-5-ylethynyl]-2-methyl-pyridin-3-yl}-methanesulfonamide] | 0.00058 | 0.119 | 0.045 | 0.123 | 0.47 | 0.109
2 | Cc1ncc(C#Cc2c(C)ncnc2-c2ccc(C(=O)N3CCN(C)CC3)c(F)c2)cc1NS(C)(=O)=O [Example 37, N-(5-{4-[3-Fluoro-4-(4-methyl-piperazine-1-carbonyl)-phenyl]-6-methyl-pyrimidin-5-ylethynyl}-2-methyl-pyridin-3-yl)-methanesulfonamide] | 0.005 | 1.02 | 4 | 0.685 | 3.04 | 25
3 | Cc1cc(-c2ncnc(C)c2C#Cc2cnc(C)c(NS(C)(=O)=O)c2)ccn1 [Example 38, N-{2-Methyl-5-[4-methyl-6-(2-methyl-pyridin-4-yl)-pyrimidin-5-ylethynyl]-pyridin-3-yl}-methanesulfonamide] | 0.002 | 0.344 | 0.186 | 0.317 | 0.893 | 2.6
4 | Cc1ncc(C#Cc2c(C)ncnc2-c2cccc(C#N)c2)cc1NS(C)(=O)=O [Example 39, N-{5-[4-(3-Cyano-phenyl)-6-methyl-pyrimidin-5-ylethynyl]-2-methyl-pyridin-3-yl}-methanesulfonamide] | 0.004 | 0.837 | 0.213 | 0.524 | 0.955 | 1.55
5 | Cc1ccc(-c2ncnc(C)c2C#Cc2cnc(C)c(NS(C)(=O)=O)c2)cn1 [Example 40, N-{2-Methyl-5-[4-methyl-6-(6-methyl-pyridin-3-yl)-pyrimidin-5-ylethynyl]-pyridin-3-yl}-methanesulfonamide] | 0.003 | 0.597 | 0.188 | 0.411 | 1.17 | 1.96
6 | Cc1ncc(C#Cc2c(C)ncnc2-c2cccc(CN(C)C)c2)cc1NS(C)(=O)=O [Example 41, N-{5-[4-(3-Dimethylaminomethyl-phenyl)-6-methyl-pyrimidin-5-ylethynyl]-2-methyl-pyridin-3-yl}-methanesulfonamide] | 0.009 | 1.28 | 1.86 | 1.16 | 25 | 2.75
7 | Cc1ncc(C#Cc2c(C)ncnc2-c2ccccc2)cc1NS(C)(=O)=O [Example 42, N-[2-Methyl-5-(4-methyl-6-phenyl-pyrimidin-5-ylethynyl)-pyridin-3-yl]-methanesulfonamide] | 0.004 | 1.13 | 0.239 | 1.33 | 1.81 | 2.26
8 | Cc1cc(C)cc(-c2ncnc(C)c2C#Cc2cnc(C)c(NS(C)(=O)=O)c2)c1 [Example 43, N-{5-[4-(3,5-Dimethyl-phenyl)-6-methyl-pyrimidin-5-ylethynyl]-2-methyl-pyridin-3-yl}-elmethanesulfonamide] | 0.003 | 0.897 | 0.27 | 0.639 | 0.9 | 0.337
9 | COc1ncc(C#Cc2c(C)ncnc2-c2ccc(C(=O)N3CCN(C)CC3)c(F)c2)cc1NS(=O)(=O)c1ccc(F)cc1F [Example 46, 2,4-Difluoro-N-(5-{4-[3-fluoro-4-(4-methyl-piperazine-1-carbonyl)-phenyl]-6-methyl-pyrimidin-5-ylethynyl}-2-methoxy-pyridin-3-yl)-benzenesulfonamide] | 0.00067 | 0.009 | 0.005 | 0.022 | 0.038 | 0.008

Now from value to molecule, other results behind:

Row | IC50 [3] [µM] | SMILES | EC50 [1] [µM] | EC50 [2] [µM] | EC50 [4] [µM] | EC50 [5] [µM] | EC50 [6] [µM]
10 | 0.0005 | CCc1ncnc(-c2ccc(C(=O)N3CCN(C)CC3)c(F)c2)c1C#Cc1cnc(C)c(NS(=O)(=O)c2ccc(F)cc2F)c1 [Example 27, N-(5-{4-Ethyl-6-[3-fluoro-4-(4-methyl-piperazine-1-carbonyl)-phenyl]-pyrimidin-5-ylethynyl}-2-methyl-pyridin-3-yl)-2,4-difluoro-benzenesulfonamide] | 0.051 | 0.011 | 0.033 | 0.075 | 0.192
11 | 0.00028 | CCc1nc(N)nc(-c2ccc(C(=O)N3CCN(C)CC3)c(F)c2)c1C#Cc1cnc(C)c(NS(=O)(=O)c2ccc(F)cc2F)c1 [Example 32, N-(5-{2-Amino-4-ethyl-6-[3-fluoro-4-(4-methyl-piperazine-1-carbonyl)-phenyl]-pyrimidin-5-ylethynyl}-2-methyl-pyridin-3-yl)-2,4-difluoro-benzenesulfonamide] | 0.127 | 0.023 | 0.049 | 0.259 | 0.5
12 | 0.00045 | CCc1nc(N)nc(-c2ccnc(C)c2)c1C#Cc1cnc(C)c(NS(=O)(=O)c2ccc(F)cc2F)c1 [Example 33, N-{5-[2-Amino-4-ethyl-6-(2-methyl-pyridin-4-yl)-pyrimidin-5-ylethynyl]-2-methyl-pyridin-3-yl}-2,4-difluoro-benzenesulfonamide] | 0.033 | 0.009 | 0.045 | 0.224 | 0.07
13 | 0.00056 | CCc1nc(N)nc(-c2ccc(C)nc2)c1C#Cc1cnc(C)c(NS(=O)(=O)c2ccc(F)cc2F)c1 [Example 36, N-{5-[2-Amino-4-ethyl-6-(6-methyl-pyridin-3-yl)-pyrimidin-5-ylethynyl]-2-methyl-pyridin-3-yl}-2,4-difluoro-benzenesulfonamide] | 0.041 | 0.01 | 0.037 | 0.127 | 0.03
14 | 0.00055 | COc1ncc(C#Cc2c(C)ncnc2-c2ccnc(C)c2)cc1NS(=O)(=O)c1ccc(F)cc1F [Example 44, 2,4-Difluoro-N-{2-methoxy-5-[4-methyl-6-(2-methyl-pyridin-4-yl)-pyrimidin-5-ylethynyl]-pyridin-3-yl}-benzenesulfonamide] | 0.023 | 0.003 | 0.037 | 0.121 | 0.015
15 | 0.001 | COc1ccc(-c2ncnc(C)c2C#Cc2cnc(OC)c(NS(=O)(=O)c3ccc(F)cc3F)c2)cc1OC [Example 45, N-{5-[4-(3,4-Dimethoxy-phenyl)-6-methyl-pyrimidin-5-ylethynyl]-2-methoxy-pyridin-3-yl}-2,4-difluoro-benzenesulfonamide] | 0.01 | 0.005 | 0.034 | 0.131 | 0.011
16 | 0.00074 | COc1ncc(C#Cc2c(C)ncnc2-c2ccc(C)nc2)cc1NS(=O)(=O)c1ccc(F)cc1F [Example 47, 2,4-Difluoro-N-{2-methoxy-5-[4-methyl-6-(6-methyl-pyridin-3-yl)-pyrimidin-5-ylethynyl]-pyridin-3-yl}-benzenesulfonamide] | 0.043 | 0.018 | 0.029 | 0.07 | 0.007
